Laboratory results: patent publication US5220042A, “1,4-benzoquinone derivatives and benzene derivatives, and process for preparing the same” (priority 1984, dated 1993)

Test system: histamine release from lung fragments
Test: Inhibition of histamine release from sensitized guinea pig lung fragments
Assay type: cell-based, guinea pig (Hartley strain)
Details: Cavia porcellus, read-out: Inhibition ratio (%) Histamine; for inhibition at 3 µM: Table 2, dose 3 μM; for inhibition at 30 µM: Table 2, dose 30 μM
Method: Inhibitory activities on the release of SRS-A and histamine of the present compounds were determined.
A male guinea pig (Hartley strain) (body weight: about 300 g) was sensitized by a method according to P. Anderson: "Int. Archs. Allergey appln. Immunol., Vol. 64, pages 249-258 (1981). Thus, 30 mg/kg of cyclophosphamide was intraperitoneally administered to the guinea pig, and 2 days after 1 microgram of ovalbumin (manufactured by Sigma Chemical Co., St. Louis, Mo. U. S. A.) together with 10 mg of aluminium hydroxide gel were intraperitoneally administered so as to have the animal sesitized.
50 Days after the sesitization, the animal was killed by exsanguination, and the lung was isolated from the animal and was perfused with 20 ml of Tyrode's solution, then immersed in an ice-cooled Tyrode's solution. The parenchyma of the lung was cut by using McIlwain-type tissue chopper to make it into fragments of lung having 2 mm square and the fragments were washed with Tyrode's solution. 400 Milligrams of sectiles of lung were suspended in 3.6 ml of Tyrode's solution, and this suspension was preincubated at 37° C. for 5 minutes, then 4 microliters of dimethyl sulfoxide solution of the test compound, in the case of control 4 microliters of dimethyl sulfoxide alone was added to the suspension. 5 Minutes after, 0.4 ml of 100 micrograms/ml of ovalbumin solution added so as to release SRS-A for 10 minutes. The suspension was ice-cooled and filtered through gauze, the filtrate was centrifuged at 2,000 rpm for 10 minutes and the supernatant was collected. The supernatant was stored in freezed state at -80° C. until bio-assay was conducted.
Amounts of SRS-A and histamine contained in the supernatant were determined by bio-assay using ileum of guinea pig.
A piece of the ileum (2-3 cm of length) positioned from 15-25 cm from the opening portion of ileocecum was isolated from a male guinea pig (Hartley strain) (body weight: 400-600 g) which was fasted for 24 hours. The piece of ileum was hanged vertically in a Magnus tube which was filled with 10 ml of Tyrode's solution containing 10^-7 M of atropine sulfate under air stream conditions. The isotonic contraction of the piece of the ileum was measured at 0.5 g of load by using an isotonic transducer "TD-112S" (manufactured by Nihon Koden Co., Ltd.). The measurements were carried out after the reaction to histamine of the piece of ileum was kept constant. Bioassay of histamine was measured by using the value of contraction shown in 30 seconds after the addition of the supernatant. Bioassay of on SRS-A was measured by using the value of contraction shown at 2 minutes after the addition of the supernatant in the presence of 10^-6 M of pyrilamine (manufactured by Sigma Chemical Co.), and compared with the standard curve of crude SRS-A released from the fragments of the lung.

COC1=CC(=O)C(OC)=C(CCCCCC2=C(OC)C(=O)C=C(OC)C2=O)C1=O [Test Compound No. 9, 2,2'-Pentamethylenebis(3,6-dimethoxy-1,4-benzoquinone)]
inhibition at 3 µM: -15% | inhibition at 30 µM: 4.1%

COC1=CC(=O)C(OC)=C(CCCCCCCCCC2=C(OC)C(=O)C=C(OC)C2=O)C1=O [Test Compound No. 13, 2,2'-Nonamethylenebis(3,6-dimethoxy-1,4-benzoquinone)]
inhibition at 3 µM: -2.7% | inhibition at 30 µM: -14.9%
